The values below come from publication PMC12564639, “Discovery of a Novel Anticoagulant Cystine Knot Peptide from Spider Venom Gland Transcriptome” (International Journal of Molecular Sciences, 2025).

The target of experiment [1] is T1, Human Activated Protein C (APC-1.0) (Homo sapiens, UniProt P04070).
T1 construct: purchased Enzyme Research Laboratories, Inc., South Bend, IN, USA APC-1.0
In words: Bio-layer interferometry (BLI) binding. Particulars: Octet R2, SA biosensors, biotinylated APC 10 µg/mL, GC38 3.125-50 μM, PBS with 0.02% Tween-20, association 300 s, dissociation 180 s, average of three, read-out: dissociation constant (KD). From the text:
Human Activated Protein C (APC-1.0) was purchased from Enzyme Research Laboratories, Inc., South Bend, IN, USA. […] Activated Partial Thromboplastin Time (APTT) Test Kit (TC0306) was bought from Senkey Biotechnology Co., Ltd., Kunming, China. Prothrombin Time (PT) Test Kit (GMS10176) was purchased from GENMED Scientifics Inc., Shanghai, China. Streptavidin (SA) Biosensors (18-5019) were obtained from Sartorius AG, Göttingen, Lower Saxony, Germany. PBS (21-040-CVC) was bought from Corning Incorporated, Corning, NY, USA. Tween-20 (BS361B) was purchased from Biosharp Life Sciences, Hefei, Anhui, China. Trifluoroacetic acid (TFA, T818778-500ml, CAS: 76-05-1) and CaCl2 (C805225) were obtained from Macklin Biochemical Co., Ltd., Shanghai, China. L-oxidized glutathione (GSSG, V900363), Rose Bengal Dye (content 95%, CAS: 632-69-9, 330000-5G), and HEPES (V900477-500G) were purchased from Sigma-Aldrich LLC, St. Louis, MO, USA (Shanghai branch: Sigma-Aldrich Shanghai Trading Co., Ltd., Shanghai, China). […]
The binding affinity between APC and GC38 was measured using the Octet® R2 system (ForteBio, Fremont, CA, USA) with Streptavidin (SA) biosensors. […] Data were acquired and analyzed using Octet® Data Acquisition and Analysis software version 8.2. […]

The test system of experiment [2] is plasma clotting (coagulation pathway). In words: Plasma recalcification time (PRT). In kind it is biochemical. Conditions: fresh plasma, 10 min at 37 °C, n = 3. As for the experimental part: Plasma recalcification time (PRT) was used to evaluate the effects of GC38 on the coagulation pathway. Fresh plasma was incubated with GC38 (0.1, 1, and 10 µM) for 10 min at 37 °C. After incubation, the plasma was mixed with an equal volume of 25 mM calcium chloride solution, and the timer was immediately started. The time required for plasma clot formation was recorded. The group treated with PBS served as the control. Each concentration was tested in triplicate, and the average value and PRT at maximum reactive velocity were reported.

Experiment [3] deals with FeCl3-induced carotid artery thrombosis in mice. In words: FeCl3-induced carotid artery thrombosis model. In kind it is in vivo, C57BL/6J mice. Particulars: for blood flow reduction, carotid artery: 10 min before FeCl3, n = 6. The method, then: The C57BL/6J mice (male, 6–8 weeks old) were purchased from Beijing Vital River Laboratory Animal Technology Co., Ltd. (Beijing, China). All animal studies were performed under the approval of the Ethics Committee of the Laboratory Animal Welfare of the Kunming Institute of Zoology, Chinese Academy of Sciences (IACUC-RE-2025-03-010).
Male C57BL/6J mice (6–8 weeks old, n = 6 per group) were randomly assigned to groups receiving intravenous injections of PBS (vehicle control), GC38 (2 or 4 mg/kg in PBS), and heparin sodium (1000 U/kg), respectively. Ten minutes post-injection, mice were anesthetized with 2% isoflurane inhalation. The right carotid artery was surgically exposed, and endothelial injury was induced by applying a 1 × 2 mm filter paper saturated with 10% (w/v) FeCl3 solution for 30 s. Real-time blood flow was monitored using a real-time laser speckle perfusion (LSP) imaging system (RWD Life Science, Shenzhen, China) with SIM BFI software (SIM BFI HR Pro, Simopto, Beijing, China). Thrombosis progression and vessel occlusion were evaluated using real-time ultrasound imaging of the region of interest at baseline (before injury), 5, and 10 min (post-injury). The perfusion unit was recorded to quantify the blood flow. Vessel occlusion was defined as a sustained reduction in perfusion units to ≤10% of baseline for at least 3 min. Data are presented as mean ± SEM.

Peptide text beside a SMILES is read from it.

As for `CSCC[C@@H]1NC(=O)[C@H](CC(N)=O)NC(=O)CNC(=O)CNC(=O)[C@H](Cc2c[nH]cn2)NC(=O)[C@H](CCCNC(=N)N)NC(=O)CNC(=O)[C@@H]2CSSC[C@@H]3NC(=O)[C@H](CCCNC(=N)N)NC(=O)[C@H](C)NC(=O)CNC(=O)[C@H](CCCCN)NC(=O)CNC(=O)[C@H](CO)NC(=O)[C@@H](NC(=O)CN)CSSC[C@H](NC(=O)[C@H](CSSC[C@@H](C(=O)N[C@@H](CCC(=O)O)C(=O)N[C@@H](Cc4c[nH]c5ccccc45)C(=O)N[C@@H](CC(N)=O)C(=O)N[C@@H](Cc4c[nH]c5ccccc45)C(=O)N[C@@H](CCCCN)C(=O)N[C@H](C(=O)NCC(=O)O)[C@@H](C)O)NC(=O)[C@H](CO)NC(=O)[C@H](CCCCN)NC(=O)[C@H](Cc4ccc(O)cc4)NC1=O)NC(=O)[C@H](CCCCN)NC(=O)[C@H](CO)NC(=O)[C@@H]1CCCN1C(=O)[C@H](C)NC3=O)C(=O)N[C@@H](CO)C(=O)NCC(=O)N[C@@H](CC(C)C)C(=O)N[C@@H](CO)C(=O)N2` [GC38] (HELM PEPTIDE1{G.C.S.G.K.G.A.R.C.A.P.S.K.C.C.S.G.L.S.C.G.R.H.G.G.N.M.Y.K.S.C.E.W.N.W.K.T.G}$PEPTIDE1,PEPTIDE1,2:R3-15:R3|PEPTIDE1,PEPTIDE1,9:R3-20:R3|PEPTIDE1,PEPTIDE1,14:R3-31:R3$$$V2.0), the Kd in experiment [1] came to 6.16 µM. In experiment [2] (GC38 10 μM, then 25 mM CaCl2, mean), the “PRT clotting time versus negative control (time to Vmax)” value amounted to 1.4 fold. Moreover, the “clotting time in plasma (PRT), dose response” value in experiment [2] (GC38 0.1-10 μM, then equal volume 25 mM CaCl2) is on record as “prolonged clotting time in plasma in a dose-responsive manner”. Moreover, the FeCl3-induced vascular occlusion result in experiment [3] (2 and 4 mg/kg i.v., Doppler flowmetry / laser speckle perfusion) is “alleviated FeCl3-induced vascular occlusion in mice”. In addition, the “blood flow reduction, carotid artery” value in experiment [3] (GC38 2 mg/kg i.v., 5 min after 10% FeCl3) was determined as 20.6%; in experiment [3] (GC38 2 mg/kg i.v., 10 min after 10% FeCl3), 44.0%; in experiment [3] (GC38 4 mg/kg i.v., 5 min after 10% FeCl3), 11.8%; in experiment [3] (GC38 4 mg/kg i.v., 10 min after 10% FeCl3), 29.4%.
